Measured values: US9101566B2, “Fermentation product of cereal plant-derived material and immunomodulator” (KIRIN HOLDINGS KABUSHIKI KAISHA, priority 2009, dated 2015)

Experiments:
Type in all cases: cell-based
[1] = tested on: human DCs from peripheral blood CD14-positive cells; test: Human regulatory DC-inducing activity of 14-DHE (Example 16); conditions: 14-DHE 1, 3 or 10 μM; ergosterol 10 μM; LPS/IFN-γ or cytokine cocktail 24 h
Procedure: Mononuclear cells were prepared from human peripheral blood by density-gradient centrifugation using Ficoll-Paque (GE Healthcare, Japan). These cells were subjected to positive selection using anti-human CD14 MACS beads (Miltenyi Biotec), so that CD14-positive cells were obtained. CD14-positive cells were cultured in RPMI1640 media (containing 10% FBS (Invitrogen), 50 μmol/L 2-mercaptoethanol (Wako Pure Chemical Industries, Japan), 50 U/mL penicillin, and 50 μg/mL streptomycin (Gibco) (Sigma Aldrich)) supplemented with recombinant human GM-CSF (800 U/mL, Leukine, Berlex) and recombinant human IL-4 (100 ng/mL, Peprotech). During culture, medium exchange was performed once every 2 days. On day 7 of culture, 14-DHE was added at a concentration of 1 μM, 3 μM, or 10 μM. To a control, 10 μM ergosterol, which was a related substance, was added. Also, to a negative control, 1% ethanol, which was a solvent for 14-DHE, was added. The cells were recovered on day 8 of culture, counted, and then suspended at a density of 3×10^5 cells/mL in the above media. To cell suspensions, 1 μg/mL LPS and 100 ng/mL IFN-γ (both, Sigma Aldrich), or cytokine cocktail (1 μg/mL PGE2 (Sigma Aldrich), 10 ng/mL TNF-α, 2 μg/mL IL-6, and 10 ng/mL IL-1β (3 (all, BD Bioscience)) were added, followed by 24-hour culture. After culture, the cells were stained for CD86, HLA-DR, and CD80. Antibodies used were all produced by BD Bioscience. The gate of DCs was set by FSC and SSC, and the expression levels of these cell surface markers were analyzed.

[2] = tested on: dendritic cells induced from C57BL/6 mouse bone marrow cells with Flt-3L (mDCs, CD11c+CD11b+); test: Regulatory DC-inducing activity of 14-dehydroergosterol (Example 9)
Procedure: Regulatory DC induction activity was evaluated for 14-dehydroergosterol (14-DHE) isolated and purified from wheat bran fermented with koji as described above and subjected to structural determination. As controls, ergosterol (Wako Pure Chemical Industries, Japan) and 9(11)-dehydroergosterol (9(11)-DHE) (Sigma-Aldrich Corp.), which are ergosterol-related substances, were used. Also, as conjugated linoleic acid (CLA) that was reported in connection with the inhibition of DC activation in the past, CLA (9Z, 11E) and CLA (10E, 12Z) (both, Cayman Chemical), and linoleic acid (Wako Pure Chemical Industries, Japan) were also subjected to activity determination (J. Immunol., 175(8): 4990-8, Oct. 15, 2005). As negative controls, a sample (none) to which no compound had been administered and a sample (ctrl) to which only LPS had been administered were also subjected to activity determination.
In a manner similar to Example 2, bone marrow cells were prepared from C57BL/6 mouse thigh bone, and then dendritic cells were induced using Flt-3L. Each test substance was added simultaneously with the initiation of culture at a concentration of 1 μM, 5 μM, or 10 μM. Seven days later, LPS (from Salmonella typhosa) (Sigma-Aldrich Corp.) was added at 5 ng/mL and then 24 hours later the cells were recovered. Subsequently, the cells were stained for the following cell markers and then subjected to flow cytometry analysis. All antibodies used were produced by Becton, Dickinson and Company. CD11c^+CD11b^+ was set as a gate for mDCs and then the expression levels of CD40, CD80, CD86, I-A/I-E, and ICOS-L were measured. Also, IL-12p40 and IL-10 in culture supernatants were measured by ELISA.

[3] = tested on: DCs induced from C57BL/6 mouse bone marrow cells with GM-CSF; test: Comparison with known regulatory DC-inducing agents, DC induction system using GM-CSF (Example 3); conditions: 50 μg/mL
Procedure: (§1) The hexane fraction (No. 8) (in Table 1) prepared in Example 1 from wheat bran fermented with koji was used for the test. Since GM-CSF is used as a DC-inducing agent in the above-mentioned reports concerning rapamycin and IL-10/TGF-β, DCs were induced in each system of GM-CSF and Flt-3L and then each regulatory DC-inducing agent was evaluated.
In a manner similar to the experimental method in […], bone marrow cells were prepared from C57BL/6 mouse thigh bone, the cells were suspended at a concentration of 2×10^5 cells/mL in a medium, and then 20 ng/ml GM-CSF (R&D systems) was added. The concentration and timing of the added test substance were similar to those in the above examples.
Regarding an evaluation method, expression intensities of the cell-surface DC activation markers CD40, CD86 and MHCII and the suppression marker PD1L were evaluated by analysis using a flow cytometer. In the case of the DC induction using GM-CSF, only mDC was generated. As in the case of Flt-3L, a gate was set on mDCs defined by CD11c^+CD11b^+B220^− and then analysis was conducted.

[4] = tested on: DCs induced from C57BL/6 mouse bone marrow cells with Flt-3L; test: Comparison with known regulatory DC-inducing agents, DC induction system using Flt-3L (Example 3); conditions: Flt-3L system, extract and γ-oryzanol 50 μg/mL, LPS 1 ng/mL
Procedure: as §1
In a manner similar to the experimental method in Example 2, bone marrow cells were prepared from C57BL/6 mouse thigh bone, the cells were suspended at 1×10^6 cells/mL in a medium, and then Flt-3L was added at 100 ng/mL. An extract from wheat bran fermented with koji, γ-oryzanol (Wako Pure Chemical Industries, Japan), or IL-10/TGF-β (produced by R&D systems and Peprotech, respectively) were added at 50 μg/mL for the former two or at 20 ng/mL for the latter two on day 0 after the initiation of culture. Rapamycin (Wako Pure Chemical Industries, Japan) was added at 10 ng/mL on day 3 after the initiation of culture. Culture was performed for 7 days and, at the time point of the last 24 hours of culture, LPS was added in a final concentration of 1 ng/mL.
Regarding an evaluation method, expression intensities of the cell-surface DC activation markers CD40, CD86 and MHCII and the suppression marker PD1L were evaluated by analysis using a flow cytometer. A gate was set on mDCs similarly to Example 1 and then analysis was conducted. Staining was performed using anti-CD11c-APC, anti-CD11b-APC-Cy7, anti-B220-PerCP, anti-CD40-FITC and anti-CD86-PE, or anti-CD11c-APC, anti-CD11b-APC-Cy7, anti-B220-PerCP, anti-MHCII-FITC, and anti-PD1L-PE (all available from Becton, Dickinson and Company) and then analysis was conducted.

Molecule: CC(C)[C@@H](C)/C=C/[C@@H](C)[C@H]1CC[C@H]2C3=CC=C4C[C@@H](O)CC[C@]4(C)[C@H]3CC[C@]12C [Ergosterol, ergosterol, reference compound]
- expression level of CD80 on human DCs [1]: did not affect
- expression level of CD86 on human DCs [1]: did not affect
- expression level of MHC class II molecule HLA-DR on human DCs [1]: did not affect

Molecule: CC(C)[C@@H](C)C=C[C@@H](C)[C@H]1CC[C@H]2C3=CC=C4C[C@@H](O)CC[C@]4(C)C3=CC[C@]12C [9(11)-DHE, 9(11)-dehydroergosterol, reference compound]
- expression of inflammatory cytokine IL-12p40 (ELISA) ([2]; 1, 5 or 10 μM, LPS 5 ng/mL, culture supernatant): a slight decrease was observed
- expression levels of I-A/I-E, CD40, CD80 and CD86 ([2]; maximum concentration (10 μM), LPS 5 ng/mL 24 h): slight decrease

Molecule: γ-oryzanol
- expression of DC activation markers in response to LPS stimulation [3]: strong increases were observed
- MHCII expression in response to LPS stimulation [4]: no fluctuation was observed
- CD40 expression in response to LPS stimulation ([4]; rapamycin 10 ng/mL from day 3): no fluctuation was observed
- CD86 expression in response to LPS stimulation ([4]; rapamycin 10 ng/mL from day 3): no fluctuation was observed
